Assay results as given in patent publication US9371320B2, “Heterocyclic compound” (TAKEDA PHARMACEUTICAL COMPANY LIMITED, priority 2012, dated 2016).
Like-named read-outs stand apart in the source and are kept apart here.

Tests used:
[1] = biological target: T1, JAK1 (Homo sapiens, UniProt P23458); experiment: JAK1 enzyme inhibition test (LANCE method); format: biochemical; conditions: for inhibition at 1 µM: read-out: Inhibitory rate (%) JAK1 1 μM; for inhibition at 10 µM: read-out: Inhibitory rate (%) JAK1 10 μM
T1 construct: purchased Invitrogen
T1 sequence (P23458 whole entry): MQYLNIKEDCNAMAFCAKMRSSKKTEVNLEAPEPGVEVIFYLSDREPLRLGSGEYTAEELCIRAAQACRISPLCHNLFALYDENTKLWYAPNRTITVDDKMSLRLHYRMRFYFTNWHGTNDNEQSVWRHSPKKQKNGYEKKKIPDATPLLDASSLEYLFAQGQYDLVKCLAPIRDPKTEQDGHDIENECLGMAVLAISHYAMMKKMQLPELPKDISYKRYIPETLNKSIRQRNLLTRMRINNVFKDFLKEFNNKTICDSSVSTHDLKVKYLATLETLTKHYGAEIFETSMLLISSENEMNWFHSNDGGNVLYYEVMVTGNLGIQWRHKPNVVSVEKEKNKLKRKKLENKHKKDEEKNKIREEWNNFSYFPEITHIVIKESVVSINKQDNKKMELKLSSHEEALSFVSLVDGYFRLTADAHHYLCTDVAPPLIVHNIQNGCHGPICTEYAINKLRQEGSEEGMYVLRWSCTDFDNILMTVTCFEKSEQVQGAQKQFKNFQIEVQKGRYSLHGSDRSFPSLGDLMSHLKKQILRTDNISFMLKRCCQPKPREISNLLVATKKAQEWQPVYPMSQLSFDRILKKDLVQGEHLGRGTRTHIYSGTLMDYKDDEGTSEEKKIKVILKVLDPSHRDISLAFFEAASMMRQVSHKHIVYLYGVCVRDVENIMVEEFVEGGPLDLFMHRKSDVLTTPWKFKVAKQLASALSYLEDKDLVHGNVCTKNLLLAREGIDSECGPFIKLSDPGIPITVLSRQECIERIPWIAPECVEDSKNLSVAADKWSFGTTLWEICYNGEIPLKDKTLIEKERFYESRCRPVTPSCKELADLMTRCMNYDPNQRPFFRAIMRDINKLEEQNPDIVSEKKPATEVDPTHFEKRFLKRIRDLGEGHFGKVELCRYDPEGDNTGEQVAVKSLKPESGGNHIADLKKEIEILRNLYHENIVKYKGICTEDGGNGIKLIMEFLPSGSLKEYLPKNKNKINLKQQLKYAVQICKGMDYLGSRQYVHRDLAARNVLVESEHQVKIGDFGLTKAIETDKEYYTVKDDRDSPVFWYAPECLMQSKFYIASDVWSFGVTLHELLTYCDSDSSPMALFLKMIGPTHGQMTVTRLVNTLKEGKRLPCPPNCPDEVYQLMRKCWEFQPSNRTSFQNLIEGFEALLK
How it was run: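 TR-FRET (LANCE) kinase assay using JAK1 at 187.5 ng/mL, ULight-JAK1 peptide at 300 nM and ATP at 150 μM, given as solution concentrations before mixing. Buffer was 50 mM HEPES pH 7.5 with 10 mM MgCl2 and 2 mM DTT, and the reaction ran 1 h at room temperature. Eu anti-phosphotyrosine signal at 665 nm was expressed relative to a no-enzyme well, taken as 100% inhibition.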

[2] = biological target: T2, Tyk2 (Homo sapiens, UniProt P29597); experiment: Tyk2 enzyme inhibition test (LANCE method); format: biochemical; conditions: for inhibition at 1 µM: read-out: Inhibitory rate (%) Tyk2 1 μM
T2 construct: purchased Invitrogen
T2 sequence (P29597 whole entry): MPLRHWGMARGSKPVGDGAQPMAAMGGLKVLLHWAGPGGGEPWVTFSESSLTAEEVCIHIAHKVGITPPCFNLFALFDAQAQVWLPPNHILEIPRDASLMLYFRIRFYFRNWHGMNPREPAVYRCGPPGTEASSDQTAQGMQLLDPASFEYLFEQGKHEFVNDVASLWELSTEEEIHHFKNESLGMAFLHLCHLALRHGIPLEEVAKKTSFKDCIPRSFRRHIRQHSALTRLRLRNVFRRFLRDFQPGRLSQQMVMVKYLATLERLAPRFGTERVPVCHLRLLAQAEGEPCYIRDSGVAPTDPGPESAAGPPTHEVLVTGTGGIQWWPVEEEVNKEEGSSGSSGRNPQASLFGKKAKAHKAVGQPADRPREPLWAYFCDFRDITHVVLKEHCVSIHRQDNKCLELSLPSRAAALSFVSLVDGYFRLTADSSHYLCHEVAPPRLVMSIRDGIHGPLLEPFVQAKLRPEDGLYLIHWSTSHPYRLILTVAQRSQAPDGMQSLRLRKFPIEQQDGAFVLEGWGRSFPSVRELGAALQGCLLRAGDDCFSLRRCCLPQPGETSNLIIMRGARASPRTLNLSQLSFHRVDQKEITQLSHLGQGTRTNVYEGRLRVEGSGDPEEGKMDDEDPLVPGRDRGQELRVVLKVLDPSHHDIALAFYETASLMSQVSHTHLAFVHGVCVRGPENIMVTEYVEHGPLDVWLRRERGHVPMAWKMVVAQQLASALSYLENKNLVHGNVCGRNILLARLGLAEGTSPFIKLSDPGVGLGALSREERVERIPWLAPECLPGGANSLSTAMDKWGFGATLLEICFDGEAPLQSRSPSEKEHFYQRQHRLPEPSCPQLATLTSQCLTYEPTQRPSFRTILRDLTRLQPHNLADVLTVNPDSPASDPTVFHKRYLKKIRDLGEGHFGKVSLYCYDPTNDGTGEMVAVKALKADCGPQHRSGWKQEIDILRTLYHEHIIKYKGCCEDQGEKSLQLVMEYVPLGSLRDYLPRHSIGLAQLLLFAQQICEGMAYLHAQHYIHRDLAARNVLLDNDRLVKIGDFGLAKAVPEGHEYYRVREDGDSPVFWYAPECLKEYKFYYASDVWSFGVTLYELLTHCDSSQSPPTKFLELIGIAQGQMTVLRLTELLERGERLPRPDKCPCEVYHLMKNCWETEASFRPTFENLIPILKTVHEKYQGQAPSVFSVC
How it was run: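 Recombinant Tyk2 (375 ng/mL stock) with ULight-JAK1 peptide (300 nM stock) and ATP (30 μM stock) in HEPES pH 7.5/MgCl2/EGTA/DTT buffer, 1 h at room temperature. Stopped with EDTA plus Eu-anti-phosphotyrosine antibody; TR-FRET read at 665 nm after 1 h. No-enzyme wells define 100% inhibition.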

[3] = test compound 10 μM (Ex. 182-220), beside Tyk2 1 μM

inhibition at 1 µM ([1]; test compound 1 μM) [%] | inhibition at 1 µM ([2]; test compound 1 μM) [%] | Compound | also measured
97 | 99 | NC(=O)Cc1ccc(-c2nn(-c3c(F)cccc3F)c3cc[nH]c(=O)c23)cc1 [Example 72, 2-(4-(1-(2,6-difluorophenyl)-4-oxo-4,5-dihydro-1H-pyrazolo[4,3-c]pyridin-3-yl)phenyl)acetamide] | 
96 | 98 | O=c1[nH]ccc2c1c(-c1ccc(C3CCOCC3)cc1)nn2-c1c(F)cccc1F [Example 257, 1-(2,6-difluorophenyl)-3-(4-(tetrahydro-2H-pyran-4-yl)phenyl)-1,5-dihydro-4H-pyrazolo[4,3-c]pyridin-4-one] | 
3 | 7 | COc1ccccc1-c1nn(C2CCCC2)c2cc[nH]c(=O)c12 [Example 48, 1-cyclopentyl-3-(2-methoxyphenyl)-1,5-dihydro-4H-pyrazolo[4,3-c]pyridin-4-one] | 
98 | 98 | NC(=O)c1cc(-c2nn(C3CCOCC3)c3cc[nH]c(=O)c23)cs1 [Example 27, 4-(4-oxo-1-(tetrahydro-2H-pyran-4-yl)-4,5-dihydro-1H-pyrazolo[4,3-c]pyridin-3-yl)thiophene-2-carboxamide] | 
94 | 91 | O=c1[nH]ccc2c1c(-c1ccncc1)nn2C1CCCC1 [Example 44, 1-cyclopentyl-3-(pyridin-4-yl)-1,5-dihydro-4H-pyrazolo[4,3-c]pyridin-4-one] | 
81 | 98 | N#Cc1c[nH]c(=O)c2c(-c3ccc(N4CCOCC4)cc3)nn(-c3c(F)cccc3F)c12 [Example 229, 1-(2,6-difluorophenyl)-3-(4-(morpholin-4-yl)phenyl)-4-oxo-4,5-dihydro-1H-pyrazolo[4,3-c]pyridine-7-carbonitrile] | 
 | 100 | NC(=O)c1cc(-c2nn([C@H]3CC[C@H](O)CC3)c3cc[nH]c(=O)c23)cs1 [Example 183, 4-(1-(trans-4-hydroxycyclohexyl)-4-oxo-4,5-dihydro-1H-pyrazolo[4,3-c]pyridin-3-yl)thiophene-2-carboxamide] | inhibition at 10 µM [1, 3]: 100%
87 | 91 | O=c1[nH]ccc2c1c(-c1ccccc1)nn2C1CCCC1 [Example 43, 1-cyclopentyl-3-phenyl-1,5-dihydro-4H-pyrazolo[4,3-c]pyridin-4-one] | 
 |  | NS(=O)(=O)c1ccc(-c2nn(C3CCC(O)CC3)c3cc[nH]c(=O)c23)cc1 (stereo not drawn) [Example 126, 4-(1-(4-hydroxycyclohexyl)-4-oxo-4,5-dihydro-1H-pyrazolo[4,3-c]pyridin-3-yl)benzenesulfonamide] | Inhibitory rate (%) JAK1 1 μM ([1]; test compound 1 μM): 99%; Inhibitory rate (%) Tyk2 1 μM ([2]; test compound 1 μM): 98%
97 | 99 | N#CCn1cc(-c2cn(C3CCCC3)c3c(C#N)c[nH]c(=O)c23)cn1 [Example 99, 3-(1-(cyanomethyl)-1H-pyrazol-4-yl)-1-cyclopentyl-4-oxo-4,5-dihydro-1H-pyrrolo[3,2-c]pyridine-7-carbonitrile] | 
90 | 84 | O=c1[nH]ccc2c1c(-c1ccc(C(F)(F)F)cc1)nn2C1CCCC1 [Example 51, 1-cyclopentyl-3-(4-(trifluoromethyl)phenyl)-1,5-dihydro-4H-pyrazolo[4,3-c]pyridin-4-one] | 
97 | 98 | COC(=O)c1cc(-c2nn(-c3c(F)cccc3F)c3cc[nH]c(=O)c23)cs1 [Example 36, methyl 4-(1-(2,6-difluorophenyl)-4-oxo-4,5-dihydro-1H-pyrazolo[4,3-c]pyridin-3-yl)thiophene-2-carboxylate] | 
 | 100 | CNC(=O)c1ccc(-c2nn(-c3c(F)cccc3F)c3c(Cl)c[nH]c(=O)c23)cc1 [Example 194, 4-(7-chloro-1-(2,6-difluorophenyl)-4-oxo-4,5-dihydro-1H-pyrazolo[4,3-c]pyridin-3-yl)-N-methylbenzamide] | inhibition at 10 µM [1, 3]: 67%
90 | 100 | C[C@H]1CCC[C@H]1n1cc(-c2csc(C(N)=O)c2)c2c(=O)[nH]ccc21 (relative stereo) [Example 85, 4-(1-(cis-2-methylcyclopentyl)-4-oxo-4,5-dihydro-1H-pyrrolo[3,2-c]pyridin-3-yl)thiophene-2-carboxamide] | 
59 | 81 | CCOC(=O)c1ccc(-c2nn(-c3c(F)cccc3F)c3cc[nH]c(=O)c23)cn1 [Example 259, ethyl 5-(1-(2,6-difluorophenyl)-4-oxo-4,5-dihydro-1H-pyrazolo[4,3-c]pyridin-3-yl)pyridine-2-carboxylate] | 
94 | 99 | O=C(CO)N1CCN(c2ccc(-c3nn(-c4c(F)cccc4F)c4cc[nH]c(=O)c34)cc2)CC1 [Example 312, 1-(2,6-difluorophenyl)-3-(4-(4-glycoloylpiperazin-1-yl)phenyl)-1,5-dihydro-4H-pyrazolo[4,3-c]pyridin-4-one] | 
99 | 97 | NS(=O)(=O)c1ccc(-c2nn(C3CCOCC3)c3cc[nH]c(=O)c23)cc1 [Example 15, 4-(4-oxo-1-(tetrahydro-2H-pyran-4-yl)-4,5-dihydro-1H-pyrazolo[4,3-c]pyridin-3-yl)benzenesulfonamide] | 
86 | 91 | O=C1Cc2cc(-c3nn(C4CCCC4)c4cc[nH]c(=O)c34)ccc2N1 [Example 58, 1-cyclopentyl-3-(2-oxo-2,3-dihydro-1H-indol-5-yl)-1,5-dihydro-4H-pyrazolo[4,3-c]pyridin-4-one] | 
50 | 89 | CC(=O)c1c[nH]c(=O)c2c(-c3csc(C(N)=O)c3)cn(C3CCCC3)c12 [Example 60, 4-(7-acetyl-1-cyclopentyl-4-oxo-4,5-dihydro-1H-pyrrolo[3,2-c]pyridin-3-yl)thiophene-2-carboxamide] | 
96 | 98 | CN(C)C(=O)c1cc(-c2cn(C3CCCC3)c3c(C#N)c[nH]c(=O)c23)cs1 [Example 107, 4-(7-cyano-1-cyclopentyl-4-oxo-4,5-dihydro-1H-pyrrolo[3,2-c]pyridin-3-yl)-N,N-dimethylthiophene-2-carboxamide] | 
94 | 99 | N#Cc1c[nH]c(=O)c2c(-c3cnn(C4CC4)c3)cn(C3CCCC3)c12 [Example 138, 1-cyclopentyl-3-(1-cyclopropyl-1H-pyrazol-4-yl)-4-oxo-4,5-dihydro-1H-pyrrolo[3,2-c]pyridine-7-carbonitrile] | 
87 | 98 | CNC(=O)Cc1cccc(-c2nn(-c3c(F)cccc3F)c3cc[nH]c(=O)c23)c1 [Example 253, 2-(3-(1-(2,6-difluorophenyl)-4-oxo-4,5-dihydro-1H-pyrazolo[4,3-c]pyridin-3-yl)phenyl)-N-methylacetamide] | 
 | 97 | CNC(=O)c1ccc(-c2nn(-c3c(F)cccc3F)c3c(Cl)c[nH]c(=O)c23)cc1F [Example 216, 4-(7-chloro-1-(2,6-difluorophenyl)-4-oxo-4,5-dihydro-1H-pyrazolo[4,3-c]pyridin-3-yl)-2-fluoro-N-methylbenzamide] | inhibition at 10 µM [1, 3]: 27%
 | 100 | O=C(NN1CCOCC1)c1cc(-c2nn(-c3c(F)cccc3F)c3c(Cl)c[nH]c(=O)c23)cs1 [Example 193, 4-(7-chloro-1-(2,6-difluorophenyl)-4-oxo-4,5-dihydro-1H-pyrazolo[4,3-c]pyridin-3-yl)-N-(morpholin-4-yl)thiophene-2-carboxamide] | inhibition at 10 µM [1, 3]: 99%
87 | 69 | CCC(COC)n1cc(-c2ccc(S(N)(=O)=O)cc2)c2c(=O)[nH]ccc21 (stereo not drawn) [Example 17, 4-(1-(1-methoxybutan-2-yl)-4-oxo-4,5-dihydro-1H-pyrrolo[3,2-c]pyridin-3-yl)benzenesulfonamide] | 
99 | 99 | NC(=O)c1cc(-c2cn(C3CCCC3)c3cc[nH]c(=O)c23)cs1 [Example 4, 4-(1-cyclopentyl-4-oxo-4,5-dihydro-1H-pyrrolo[3,2-c]pyridin-3-yl)thiophene-2-carboxamide] | 
82 | 97 | Cc1ccccc1-c1nn(-c2csc(C(N)=O)c2)c2c(=O)[nH]cc(Br)c12 [Example 80, 4-(4-bromo-3-(2-methylphenyl)-7-oxo-6,7-dihydro-1H-pyrazolo[3,4-c]pyridin-1-yl)thiophene-2-carboxamide] | 
87 | 97 | N#CCOc1ccc(-c2cn(C3CCCC3)c3c(C#N)c[nH]c(=O)c23)cc1 [Example 121, 3-(4-(cyanomethoxy)phenyl)-1-cyclopentyl-4-oxo-4,5-dihydro-1H-pyrrolo[3,2-c]pyridine-7-carbonitrile] | 
99 | 99 | NC(=O)c1cc(-c2nn(C3CCCC3)c3cc[nH]c(=O)c23)cs1 [Example 13, 4-(1-cyclopentyl-4-oxo-4,5-dihydro-1H-pyrazolo[4,3-c]pyridin-3-yl)thiophene-2-carboxamide] | 
 |  | NC(=O)c1ccc(F)c(-c2nn(-c3c(F)cccc3F)c3c(Cl)c[nH]c(=O)c23)c1 [Example 269, 3-(7-chloro-1-(2,6-difluorophenyl)-4-oxo-4,5-dihydro-1H-pyrazolo[4,3-c]pyridin-3-yl)-4-fluorobenzamide] | inhibition at 10 µM ([1]; test compound 10 μM): 24%; inhibition at 10 µM ([2]; test compound 10 μM, read-out: Inhibitory rate (%) Tyk2 10 μM): 29%
